This note sets out measurements from US9522914B2, “Azole derivative” (TAISHO PHARMACEUTICAL CO., LTD, priority 2011, dated 2016).

The structures appear in SMILES notation.

The target of the assay is Human V1b receptor (Homo sapiens (Human), UniProt P47901). The assay can be described thus: Binding Test for V1b Receptor ([3H]AVP, crude membrane preparation of 293FT cells). The settings on record: inhibition of [3H]AVP binding (0.4 to 1 nmol/L), room temperature, 60 minutes. In a few lines:
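Crude membranes from 293FT cells transiently expressing human V1b, incubated with [3H]AVP (0.4 to 1 nmol/L) and compound (0.01 nmol/L–1 μmol/L final) in Tris pH 7.4 with MgCl2 and 0.1% BSA, 60 min at room temperature. Bound label collected by filtration. Nonspecific binding defined with unlabeled AVP; IC50 from dose-response curve.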

Chain of Human V1b receptor (P47901 whole entry): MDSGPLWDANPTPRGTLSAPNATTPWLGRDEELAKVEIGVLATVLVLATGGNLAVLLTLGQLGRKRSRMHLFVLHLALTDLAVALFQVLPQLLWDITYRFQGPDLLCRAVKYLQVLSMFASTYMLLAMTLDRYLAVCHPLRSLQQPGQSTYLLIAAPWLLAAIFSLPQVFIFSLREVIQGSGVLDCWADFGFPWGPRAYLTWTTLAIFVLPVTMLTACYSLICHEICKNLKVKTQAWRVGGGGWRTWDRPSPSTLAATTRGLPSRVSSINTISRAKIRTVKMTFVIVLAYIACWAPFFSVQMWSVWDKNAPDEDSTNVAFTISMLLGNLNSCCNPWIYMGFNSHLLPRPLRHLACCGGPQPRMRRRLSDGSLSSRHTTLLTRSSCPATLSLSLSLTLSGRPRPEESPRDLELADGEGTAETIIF

Compound `COc1cccc(-c2nc(-c3ccc(CCN4CCOCC4)cc3)nn2CC(=O)NC(C)C)c1` [Example B-16, 2-[5-(3-methoxyphenyl)-3-{4-[2-(morpholin-4-yl)ethyl]phenyl}-1H-1,2,4-triazol-1-yl]-N-(propan-2-yl)acetamide] came in with an IC50 of 5.3 nM.
Compound `COc1cccc(-c2nc(-c3ccc(CCN4C5CCC4COC5)cc3)nn2CC(=O)NC(C)C)c1` [Example B-17, 2-[5-(3-methoxyphenyl)-3-{4-[2-(3-oxa-8-azabicyclo[3.2.1]oct-8-yl)ethyl]phenyl}-1H-1,2,4-triazol-1-yl]-N-(propan-2-yl)acetamide] showed an IC50 of 1.4 nM.
`COc1cccc(-c2nc(-c3ccc(CCN4CCOCC4)cc3F)nn2CC(=O)NC(C)C)c1` [Example B-18, 2-[3-{2-fluoro-4-[2-(morpholin-4-yl)ethyl]phenyl}-5-(3-methoxyphenyl)-1H-1,2,4-triazol-1-yl]-N-(propan-2-yl)acetamide]: the half-maximal inhibitory concentration (IC50) came out at 7.2 nM.
The figure for `COc1cccc(-c2nc(-c3ccc(CCN4CCOCC4)c(F)c3)nn2CC(=O)NC(C)C)c1` [Example B-19, 2-[3-{3-fluoro-4-[2-(morpholin-4-yl)ethyl]phenyl}-5-(3-methoxyphenyl)-1H-1,2,4-triazol-1-yl]-N-(propan-2-yl)acetamide] is 6.9 nM.
Take `COc1cccc(-c2nc(-c3ccc(CC(C)N4C5CCC4COC5)cc3)nn2CC(=O)NC(C)C)c1` (stereo not drawn) [Example B-20, 2-[5-(3-methoxyphenyl)-3-{4-[2-(3-oxa-8-azabicyclo[3.2.1]oct-8-yl)propyl]phenyl}-1H-1,2,4-triazol-1-yl]-N-(propan-2-yl)acetamide]: the IC50 is 0.43 nM.
Compound `COc1cccc(-c2nc(-c3ccc(CCN4CCCC4)cc3)nn2CC(=O)NC(C)C)c1` [Example B-21, 2-[5-(3-methoxyphenyl)-3-{4-[2-(pyrrolidin-1-yl)ethyl]phenyl}-1H-1,2,4-triazol-1-yl]-N-(propan-2-yl)acetamide] showed a half-inhibitory concentration (IC50) of 10 to 100 nM.
The compound `COc1cccc(-c2nc(-c3ccc(CCN4CC=CCC4)cc3)nn2CC(=O)NC(C)C)c1` [Example B-22, 2-[3-{4-[2-(3,6-dihydropyridin-1(2H)-yl)ethyl]phenyl}-5-(3-methoxyphenyl)-1H-1,2,4-triazol-1-yl]-N-(propan-2-yl)acetamide] yielded a half-maximal inhibitory concentration (IC50) of 10 to 100 nM.
For `COc1cccc(-c2nc(-c3ccc(CCN4CCC(C)CC4)cc3)nn2CC(=O)NC(C)C)c1` [Example B-23, 2-[5-(3-methoxyphenyl)-3-{4-[2-(4-methylpiperidin-1-yl)ethyl]phenyl}-1H-1,2,4-triazol-1-yl]-N-(propan-2-yl)acetamide], the IC50 lay in the range of 10 to 100 nM.
The compound `COc1cccc(-c2nc(-c3ccc(CCN4CCC(C#N)CC4)cc3)nn2CC(=O)NC(C)C)c1` [Example B-24, 2-[3-{4-[2-(4-cyanopiperidin-1-yl)ethyl]phenyl}-5-(3-methoxyphenyl)-1H-1,2,4-triazol-1-yl]-N-(propan-2-yl)acetamide] returned a half-maximal inhibitory concentration (IC50) of 100 to 1000 nM.
Compound `COc1cccc(-c2nc(-c3ccc(CCN4CCCC(OC)C4)cc3)nn2CC(=O)NC(C)C)c1` (stereo not drawn) [Example B-25, 2-[5-(3-methoxyphenyl)-3-{4-[2-(3-methoxypiperidin-1-yl)ethyl]phenyl}-1H-1,2,4-triazol-1-yl]-N-(propan-2-yl)acetamide] registered a concentration for half-maximal inhibition (IC50) of 10 to 100 nM.
Consider `COc1cccc(-c2nc(-c3ccc(CCN4CCC(N(C)C)CC4)cc3)nn2CC(=O)NC(C)C)c1` [Example B-26, 2-[3-(4-{2-[4-(dimethylamino)piperidin-1-yl]ethyl}phenyl)-5-(3-methoxyphenyl)-1H-1,2,4-triazol-1-yl]-N-(propan-2-yl)acetamide], for which the IC50 fell in the range of 100 to 1000 nM.
`COc1cccc(-c2nc(-c3ccc(CCN4CCC5CCCCC5C4)cc3)nn2CC(=O)NC(C)C)c1` (stereo not drawn) [Example B-27, 2-[5-(3-methoxyphenyl)-3-{4-[2-(octahydroisoquinolin-2(1H)-yl)ethyl]phenyl}-1H-1,2,4-triazol-1-yl]-N-(propan-2-yl)acetamide]: the IC50 lay in the range of 10 to 100 nM.
In the case of `COc1cccc(-c2nc(-c3ccc(CCN4CCSCC4)cc3)nn2CC(=O)NC(C)C)c1` [Example B-28, 2-[5-(3-methoxyphenyl)-3-{4-[2-(thiomorpholin-4-yl)ethyl]phenyl}-1H-1,2,4-triazol-1-yl]-N-(propan-2-yl)acetamide], the half-maximal inhibitory concentration (IC50) is less than 10 nM.
In turn, `COc1cccc(-c2nc(-c3ccc(CCN4C[C@@H](C)O[C@@H](C)C4)cc3)nn2CC(=O)NC(C)C)c1` [Example B-29, 2-[3-(4-{2-[(2R,6S)-2,6-dimethylmorpholin-4-yl]ethyl}phenyl)-5-(3-methoxyphenyl)-1H-1,2,4-triazol-1-yl]-N-(propan-2-yl)acetamide] gave an IC50 of 10 to 100 nM.
`COc1cccc(-c2nc(-c3ccc(CCN4CCOCC4C)cc3)nn2CC(=O)NC(C)C)c1` (stereo not drawn) [Example B-30, 2-[5-(3-methoxyphenyl)-3-{4-[2-(3-methylmorpholin-4-yl)ethyl]phenyl}-1H-1,2,4-triazol-1-yl]-N-(propan-2-yl)acetamide] came in with an IC50 of 10 to 100 nM.
`CCC1COCCN1CCc1ccc(-c2nc(-c3cccc(OC)c3)n(CC(=O)NC(C)C)n2)cc1` (stereo not drawn) [Example B-31, 2-[3-{4-[2-(3-ethylmorpholin-4-yl)ethyl]phenyl}-5-(3-methoxyphenyl)-1H-1,2,4-triazol-1-yl]-N-(propan-2-yl)acetamide] registered an IC50 of 10 to 100 nM.
`COc1cccc(-c2nc(-c3ccc(CCN4CCN(C)CC4)cc3)nn2CC(=O)NC(C)C)c1` [Example B-32, 2-[5-(3-methoxyphenyl)-3-{4-[2-(4-methylpiperazin-1-yl)ethyl]phenyl}-1H-1,2,4-triazol-1-yl]-N-(propan-2-yl)acetamide]: the half-maximal inhibitory concentration (IC50) is 100 to 1000 nM.
`COc1cccc(-c2nc(-c3ccc(CCN4CCN(C(C)=O)CC4)cc3)nn2CC(=O)NC(C)C)c1` [Example B-33, 2-[3-{4-[2-(4-acetylpiperazin-1-yl)ethyl]phenyl}-5-(3-methoxyphenyl)-1H-1,2,4-triazol-1-yl]-N-(propan-2-yl)acetamide]: the IC50 was in the range of 100 to 1000 nM.
Compound `COc1cccc(-c2nc(-c3ccc(CCN4CCC(C(N)=O)CC4)cc3)nn2CC(=O)NC(C)C)c1` [Example B-34, 1-[2-(4-{5-(3-methoxyphenyl)-1-[2-oxo-2-(propan-2-ylamino)ethyl]-1H-1,2,4-triazol-3-yl}phenyl)ethyl]piperidine-4-carboxamide] came in with an IC50 of 100 to 1000 nM.
Compound `COc1cccc(-c2nc(-c3ccc(CCN4CCC(NC(C)=O)CC4)cc3)nn2CC(=O)NC(C)C)c1` [Example B-35, 2-[3-(4-{2-[4-(acetylamino)piperidin-1-yl]ethyl}phenyl)-5-(3-methoxyphenyl)-1H-1,2,4-triazol-1-yl]-N-(propan-2-yl)acetamide] gave an IC50 of 100 to 1000 nM.
Next, `COc1cccc(-c2nc(-c3ccc(CCN4CCC(C)(O)CC4)cc3)nn2CC(=O)NC(C)C)c1` [Example B-36, 2-[3-{4-[2-(4-hydroxy-4-methylpiperidin-1-yl)ethyl]phenyl}-5-(3-methoxyphenyl)-1H-1,2,4-triazol-1-yl]-N-(propan-2-yl)acetamide]: 10 to 100 nM; `COc1cccc(-c2nc(-c3ccc(CCN4CC5(CCOCC5)C4)cc3)nn2CC(=O)NC(C)C)c1` [Example B-37, 2-[5-(3-methoxyphenyl)-3-{4-[2-(7-oxa-2-azaspiro[3.5]non-2-yl)ethyl]phenyl}-1H-1,2,4-triazol-1-yl]-N-(propan-2-yl)acetamide]: less than 10 nM; `COc1cccc(-c2nc(-c3ccc(CCN4CCC(C(F)(F)F)CC4)cc3)nn2CC(=O)NC(C)C)c1` [Example B-38, 2-[5-(3-methoxyphenyl)-3-(4-{2-[4-(trifluoromethyl)piperidin-1-yl]ethyl}phenyl)-1H-1,2,4-triazol-1-yl]-N-(propan-2-yl)acetamide]: 10 to 100 nM.
Compound `COc1cccc(-c2nc(-c3ccc(CCN4CCC(F)CC4)cc3)nn2CC(=O)NC(C)C)c1` [Example B-39, 2-[3-{4-[2-(4-fluoropiperidin-1-yl)ethyl]phenyl}-5-(3-methoxyphenyl)-1H-1,2,4-triazol-1-yl]-N-(propan-2-yl)acetamide] came in with a half-maximal inhibitory concentration (IC50) of 10 to 100 nM.
Compound `COc1cccc(-c2nc(-c3ccc(CCN4CCC(F)(F)CC4)cc3)nn2CC(=O)NC(C)C)c1` [Example B-40, 2-[3-{4-[2-(4,4-difluoropiperidin-1-yl)ethyl]phenyl}-5-(3-methoxyphenyl)-1H-1,2,4-triazol-1-yl]-N-(propan-2-yl)acetamide] returned a half-inhibitory concentration (IC50) of 10 to 100 nM.
Consider `COc1cccc(-c2nc(-c3ccc(CCN4C(C)COCC4C)cc3)nn2CC(=O)NC(C)C)c1` (stereo not drawn) [Example B-41, 2-[3-{4-[2-(3,5-dimethylmorpholin-4-yl)ethyl]phenyl}-5-(3-methoxyphenyl)-1H-1,2,4-triazol-1-yl]-N-(propan-2-yl)acetamide], for which the IC50 was 10 to 100 nM.
On to `COc1cccc(-c2nc(-c3ccc(CCN4CC5(COC5)C4)cc3)nn2CC(=O)NC(C)C)c1` [Example B-42, 2-[5-(3-methoxyphenyl)-3-{4-[2-(2-oxa-6-azaspiro[3.3]hept-6-yl)ethyl]phenyl}-1H-1,2,4-triazol-1-yl]-N-(propan-2-yl)acetamide], for which the IC50 is less than 10 nM.
Compound `CC(C)NC(=O)Cc1nn(-c2ccc(CCN3CCCCC3)cc2)cc1-c1cccc(Cl)c1` [Example C-01, 2-[4-(3-chlorophenyl)-1-{4-[2-(piperidin-1-yl)ethyl]phenyl}-1H-pyrazol-3-yl]-N-(propan-2-yl)acetamide] showed an IC50 of 21 nM.
The figure for `CC(C)NC(=O)Cc1cn(-c2ccc(CCN3CCCCC3)cc2)nc1-c1cccc(Cl)c1` [Example C-02, 2-[3-(3-chlorophenyl)-1-{4-[2-(piperidin-1-yl)ethyl]phenyl}-1H-pyrazol-4-yl]-N-(propan-2-yl)acetamide] is 13 nM.
The figure for `CC(C)NC(=O)Cc1cn(-c2ccc(CCN3CCOCC3)cc2)nc1-c1cccc(Cl)c1` [Example C-03, 2-[3-(3-chlorophenyl)-1-{4-[2-(morpholin-4-yl)ethyl]phenyl}-1H-pyrazol-4-yl]-N-(propan-2-yl)acetamide] is 8.6 nM.
